According to ChEMBL document CHEMBL2434896, “Carbonic anhydrase inhibitors. Synthesis of heterocyclic 4-substituted pyridine-3-sulfonamide derivatives and their inhibition of the human cytosolic isozymes I and II and transmembrane tumor-associated isozymes IX and XII” (Eur J Med Chem, 2013):
Active and inactive are the calls of the source. The rule behind the calls is not given here.

Assays:
Malme-3M = test: Growth inhibition of human MALME-3M cells at 10 uM after 48 hrs by sulforhodamine B assay; format: functional; conditions: read-out: GI
LOX IMVI = test: Growth inhibition of human LOXIMVI cells at 10 uM after 48 hrs by sulforhodamine B assay; format: functional; conditions: read-out: GI
U-251 = test: Growth inhibition of human U251 cells at 10 uM after 48 hrs by sulforhodamine B assay; format: functional
SNB-75 = test: Growth inhibition of human SNB75 cells at 10 uM after 48 hrs by sulforhodamine B assay; format: functional; conditions: SNB-75, 48 h, read-out: GI
SF-539 = test: Growth inhibition of human SF539 cells at 10 uM after 48 hrs by sulforhodamine B assay; format: functional
SF-295 = test: Growth inhibition of human SF295 cells at 10 uM after 48 hrs by sulforhodamine B assay; format: functional
SF-268 = test: Growth inhibition of human SF268 cells at 10 uM after 48 hrs by sulforhodamine B assay; format: functional; conditions: SF-268, 48 h, read-out: GI
SW-620 = test: Growth inhibition of human SW620 cells at 10 uM after 48 hrs by sulforhodamine B assay; format: functional
HCT-116 = test: Growth inhibition of human HCT116 cells at 10 uM after 48 hrs by sulforhodamine B assay; format: functional
HCC 2998 = test: Growth inhibition of human HCC2998 cells at 10 uM after 48 hrs by sulforhodamine B assay; format: functional
COLO 205 = test: Growth inhibition of human COLO205 cells at 10 uM after 48 hrs by sulforhodamine B assay; format: functional
NCI-H460 = test: Growth inhibition of human NCI-H460 cells at 10 uM after 48 hrs by sulforhodamine B assay; format: functional
NCI-H322M = test: Growth inhibition of human NCI-H322M cells at 10 uM after 48 hrs by sulforhodamine B assay; format: functional
NCI-H226 = test: Growth inhibition of human NCI-H226 cells at 10 uM after 48 hrs by sulforhodamine B assay; format: functional
HOP-92 = test: Growth inhibition of human HOP92 cells at 10 uM after 48 hrs by sulforhodamine B assay; format: functional
A549 = test: Growth inhibition of human A549/ATCC cells at 10 uM after 48 hrs by sulforhodamine B assay; format: functional
SR = test: Growth inhibition of human SR cells at 10 uM after 48 hrs by sulforhodamine B assay; format: functional; conditions: read-out: GI
MOLT-4 = test: Growth inhibition of human MOLT4 cells at 10 uM after 48 hrs by sulforhodamine B assay; format: functional; conditions: MOLT-4, 48 h, read-out: GI
K562 = test: Growth inhibition of human K562 cells at 10 uM after 48 hrs by sulforhodamine B assay; format: functional
CCRF-CEM = test: Growth inhibition of human CCRF-CEM cells at 10 uM after 48 hrs by sulforhodamine B assay; format: functional; conditions: read-out: GI
Carbonic anhydrase 9 = Carbonic anhydrase 9 (Homo sapiens, UniProt Q16790); test: Inhibition of human carbonic anhydrase 9 after 15 mins by stopped flow CO2 hydration assay
MDA-MB-468 = test: Growth inhibition of human MDA-MB-468 cells at 10 uM after 48 hrs by sulforhodamine B assay; format: functional
T47D = test: Growth inhibition of human T47D cells at 10 uM after 48 hrs by sulforhodamine B assay; format: functional
BT-549 = test: Growth inhibition of human BT549 cells at 10 uM after 48 hrs by sulforhodamine B assay; format: functional; conditions: BT-549, 48 h, read-out: GI
Hs-578T = test: Growth inhibition of human Hs 578T cells at 10 uM after 48 hrs by sulforhodamine B assay; format: functional
MDA-MB-231 = test: Growth inhibition of human MDA-MB-231 cells at 10 uM after 48 hrs by sulforhodamine B assay; format: functional
MCF7 = test: Growth inhibition of human MCF7 cells at 10 uM after 48 hrs by sulforhodamine B assay; format: functional
DU-145 = test: Growth inhibition of human DU145 cells at 10 uM after 48 hrs by sulforhodamine B assay; format: functional
PC-3 = test: Growth inhibition of human PC3 cells at 10 uM after 48 hrs by sulforhodamine B assay; format: functional
UO-31 = test: Growth inhibition of human UO31 cells at 10 uM after 48 hrs by sulforhodamine B assay; format: functional; conditions: UO-31, 48 h, read-out: GI
TK-10 = test: Growth inhibition of human TK10 cells at 10 uM after 48 hrs by sulforhodamine B assay; format: functional
SN12C = test: Growth inhibition of human SN12C cells at 10 uM after 48 hrs by sulforhodamine B assay; format: functional
RXF 393 = test: Growth inhibition of human RXF393 cells at 10 uM after 48 hrs by sulforhodamine B assay; format: functional
CAKI-1 = test: Growth inhibition of human CAKI-1 cells at 10 uM after 48 hrs by sulforhodamine B assay; format: functional
ACHN = test: Growth inhibition of human ACHN cells at 10 uM after 48 hrs by sulforhodamine B assay; format: functional
A498 = test: Growth inhibition of human A498 cells at 10 uM after 48 hrs by sulforhodamine B assay; format: functional
786-0 = test: Growth inhibition of human 786-0 cells at 10 uM after 48 hrs by sulforhodamine B assay; format: functional; conditions: 786-0, 48 h, read-out: GI
SK-OV-3 = test: Growth inhibition of human SKOV3 cells at 10 uM after 48 hrs by sulforhodamine B assay; format: functional
OVCAR-8 = test: Growth inhibition of human OVCAR8 cells at 10 uM after 48 hrs by sulforhodamine B assay; format: functional
OVCAR-5 = test: Growth inhibition of human OVCAR5 cells at 10 uM after 48 hrs by sulforhodamine B assay; format: functional
OVCAR-4 = test: Growth inhibition of human OVCAR4 cells at 10 uM after 48 hrs by sulforhodamine B assay; format: functional
OVCAR-3 = test: Growth inhibition of human OVCAR3 cells at 10 uM after 48 hrs by sulforhodamine B assay; format: functional
IGROV-1 = test: Growth inhibition of human IGROV1 cells at 10 uM after 48 hrs by sulforhodamine B assay; format: functional
UACC-62 = test: Growth inhibition of human UACC62 cells at 10 uM after 48 hrs by sulforhodamine B assay; format: functional
SK-MEL-5 = test: Growth inhibition of human SK-MEL-5 cells at 10 uM after 48 hrs by sulforhodamine B assay; format: functional
SK-MEL-2 = test: Growth inhibition of human SK-MEL-2 cells at 10 uM after 48 hrs by sulforhodamine B assay; format: functional
MDA-MB-435 = test: Growth inhibition of human MDA-MB-435 cells at 10 uM after 48 hrs by sulforhodamine B assay; format: functional
M14 = test: Growth inhibition of human M14 cells at 10 uM after 48 hrs by sulforhodamine B assay; format: functional

NS(=O)(=O)c1cnccc1N1CCN(c2ncccn2)CC1
inhibition of growth at 10 µM (Malme-3M): 6% | inhibition of growth at 10 µM (LOX IMVI): 4% | growth inhibition (GI) (U-251): inactive | inhibition of growth at 10 µM (SNB-75): 11% | growth inhibition (GI) (SF-539): inactive | growth inhibition (GI) (SF-295): inactive | inhibition of growth at 10 µM (SF-268): 5% | growth inhibition (GI) (SW-620): inactive | growth inhibition (GI) (HCT-116): inactive | growth inhibition (GI) (HCC 2998): inactive | growth inhibition (GI) (COLO 205): inactive | growth inhibition (GI) (NCI-H460): inactive | growth inhibition (GI) (NCI-H322M): inactive | growth inhibition (GI) (NCI-H226): inactive | growth inhibition (GI) (HOP-92): inactive | growth inhibition (GI) (A549): inactive | inhibition of growth at 10 µM (SR): 17% | inhibition of growth at 10 µM (MOLT-4): 6% | growth inhibition (GI) (K562): inactive | inhibition of growth at 10 µM (CCRF-CEM): 10% | Ki (Carbonic anhydrase 9): 78.3 nM | growth inhibition (GI) (MDA-MB-468): inactive | growth inhibition (GI) (T47D): inactive | inhibition of growth at 10 µM (BT-549): 7% | growth inhibition (GI) (Hs-578T): inactive | growth inhibition (GI) (MDA-MB-231): inactive | growth inhibition (GI) (MCF7): inactive | growth inhibition (GI) (DU-145): inactive | growth inhibition (GI) (PC-3): inactive | inhibition of growth at 10 µM (UO-31): 15% | growth inhibition (GI) (TK-10): inactive | growth inhibition (GI) (SN12C): inactive | growth inhibition (GI) (RXF 393): inactive | growth inhibition (GI) (CAKI-1): inactive | growth inhibition (GI) (ACHN): inactive | growth inhibition (GI) (A498): inactive | inhibition of growth at 10 µM (786-0): 1% | growth inhibition (GI) (SK-OV-3): inactive | growth inhibition (GI) (OVCAR-8): inactive | growth inhibition (GI) (OVCAR-5): inactive | growth inhibition (GI) (OVCAR-4): inactive | growth inhibition (GI) (OVCAR-3): inactive | growth inhibition (GI) (IGROV-1): inactive | growth inhibition (GI) (UACC-62): inactive | growth inhibition (GI) (SK-MEL-5): inactive | growth inhibition (GI) (SK-MEL-2): inactive | growth inhibition (GI) (MDA-MB-435): inactive | growth inhibition (GI) (M14): inactive
